Results: patent publication US9643933B2, “Compounds useful as antibiotic tolerance inhibitors” (priority 2013, dated 2017)
pIC50: −log10 of the molar value. Like-named read-outs stand apart in the source and are kept apart here.

Legend:
[1] = system: HHQ; assay: Assay for HHQ Inhibition (6 Hour Incubation); assay type: cell-based, P. aeruginosa PA14 wild-type strain; details: for IC50: Pseudomonas aeruginosa, PA14, 6 h, read-out: HHQ (6 hr) IC50 (μM)
Method: (§1) A concentration range with 7 test concentrations is chosen for each test compound. Typically concentration ranges for the PQS and HHQ assays are from 0.03 to 31.6 μM. Compounds are prepared in solvent, usually DMSO, at either 200 or 500 times the final test concentration.
(§2) P. aeruginosa PA14 wild-type strain is inoculated into 5 ml LB broth in a 15 ml sterile glass culture tube and incubated overnight at 37° C. under shaking (˜240 rpm). After overnight incubation, the bacterial culture is diluted in fresh LB broth to an OD600 nm=0.04, and 5 mL aliquots of the diluted bacterial culture are distributed into 15-mL glass tubes. 10 μL of test compound at 500 times the final test concentration or 25 μL of test compound at 200 times the final test concentration or solvent alone is added to each of the bacterial suspension tubes, and the tubes are incubated at 37° C. under shaking (300 rpm) for 6 hours. At the end of the incubation period, a 0.5 mL aliquot of bacterial suspension is transferred from each 15 mL glass tube, after shaking, to a 2 mL polypropylene vial. 0.5 mL of methanol-containing D4-PQS (deuterated-PQS), D4-HHQ (deuterated-HHQ) and 2% acetic acid are added to each 2 mL vial and each vial is vigorously shaken. The vials are then centrifuged for 5 minutes at 12,000 g, and 200 μL of supernatant from each vial is transferred to a glass vial (vials crimp 0.2 mL), and the sealed vials are kept at 4° C. until LC-MS/MS analysis is performed. HAQs quantification is carried out analyzing samples in discrete batches together with spiked standards and blank samples. Calibration curves are constructed from HAQs standards, and respective deuterated forms are used as Internal Standards (IS), to calculate the concentration of analytes in the sample and improve the precision of the assay. The back-calculated concentrations of the calibration standards from the calibration curve shall be within ±20% of the nominal values, the range of the analytical method is determined, and the lower and upper limit of quantification specified.
(§3) Liquid chromatography separations are performed using Agilent HP1100 system (Agilent Technologies) coupled with a CTC PAL Autosampler (CTC Analytics AG). Chromatographic retention is obtained using a monolithic column (Chromolith® RP-18, 50×4.6 mm). The solvent system consists of water containing 0.1% (v/v) formic acid (A) and acetonitrile containing 0.1% (v/v) formic acid (B). The gradient elution profile is chosen as follows: 0 min: 70% A (1500 μL/min), 0.3 min: 70% A (1500 μL/min), 1.3 min: 5% A (2500 μL/min), 1.6 min: 5% A (2500 μL/min).
(§4) The MS/MS analysis is performed with a API4000 series mass spectrometer (AB Sciex™) operating in Multiple Reaction Monitoring (MRM) mode and equipped with a TIS ion source. The specific ions monitored are PQS (m/z 260→m/z 175), D4-PQS (m/z 264→m/z 179), HHQ (m/z 244→m/z 159) and D4-HHQ (m/z 248→m/z 163). PQS and HHQ in presence of different test compound concentrations are expressed as percentage of inhibition of the basal level in control samples.

[2] = system: PQS; assay: Assay for PQS Inhibition (6 Hour Incubation); assay type: cell-based, P. aeruginosa PA14 wild-type strain; details: for IC50: Pseudomonas aeruginosa, PA14, 6 h, read-out: PQS (6 hr) IC50 (μM)
Method: as §1, §2, §3, §4

In the case of “2-((5-chloro-1H-benzo[d]imidazol-2-yl)thio)-N-(4-(pyrimidin-5-yloxy)phenyl)acetamide [Compound 79]”, the pIC50 ([1]; P. aeruginosa PA14 culture, 6 hours incubation, HHQ by LC-MS/MS, read-out: HHQ (6 hr) IC50) was > 6.00 and the pIC50 ([2]; P. aeruginosa PA14 culture, 6 hours incubation, PQS by LC-MS/MS, read-out: PQS (6 hr) IC50) was > 6.00.
In the case of `N#Cc1ccc(NC(=O)CSc2nc3cc(C(F)(F)F)ccc3[nH]2)cc1` [Compound 56], the IC50 [1] was < 1 µM and the IC50 [2] was < 1 µM.
With `N#Cc1ccc(NC(=O)CSc2nc3cc(F)ccc3[nH]2)cc1` [Compound 57] the IC50 [1] was 1 to 5 µM and the IC50 [2] was 1 to 5 µM.
In the case of `O=C(CNc1nc2cc(Cl)ccc2s1)Nc1ccc(Oc2cccnc2)cc1` [Compound 71, 2-((5-chlorobenzo[d]thiazol-2-yl)amino)-N-(4-(pyridin-3-yloxy)phenyl)acetamide], the IC50 [1] was 1 to 5 µM and the IC50 [2] was 1 to 5 µM.
With `O=C(CNc1nc2cc(Cl)ccc2o1)Nc1ccc(Oc2cccnc2)cc1` [Compound 74, 2-((5-chlorobenzo[d]oxazol-2-yl)amino)-N-(4-(pyridin-3-yloxy)phenyl)acetamide] the IC50 [1] was < 1 µM and the IC50 [2] was 1 to 5 µM.
For `O=C(CSc1nc2cc(Cl)ccc2[nH]1)Nc1ccc(Oc2cccnc2)cc1` [Compound 77, 2-((5-chloro-1H-benzo[d]imidazol-2-yl)thio)-N-(4-(pyridin-3-yloxy)phenyl)acetamide], the IC50 [1] was < 1 µM and the IC50 [2] was < 1 µM.
In the case of `O=C(CSc1nc2cc(Cl)ccc2[nH]1)Nc1ccc(Oc2cccnc2Cl)cc1` [Compound 83, 2-((5-chloro-1H-benzo[d]imidazol-2-yl)thio)-N-(4-((2-chloropyridin-3-yl)oxy)phenyl)acetamide], the IC50 [1] was < 1 µM and the IC50 [2] was < 1 µM.
`O=C(CSc1nc2cc(Cl)ccc2[nH]1)Nc1ccc(Oc2ccc(Cl)nc2)cc1` [Compound 84, 2-((5-chloro-1H-benzo[d]imidazol-2-yl)thio)-N-(4-((6-chloropyridin-3-yl)oxy)phenyl)acetamide] was tested, and the IC50 [1] was < 1 µM and the IC50 [2] was < 1 µM.
With `O=C(CCc1nc2cc(Cl)ccc2s1)Nc1ccc(Oc2cccnc2)cc1` [Compound 85, 3-(5-chlorobenzo[d]thiazol-2-yl)-N-(4-(pyridin-3-yloxy)phenyl)propanamide] the IC50 [1] was 1 to 5 µM and the IC50 [2] was 1 to 5 µM.
For `O=C(CCc1nc2ccc(Cl)cc2s1)Nc1ccc(Oc2cccnc2)cc1` [Compound 86, 3-(6-Chlorobenzo[d]thiazol-2-yl)-N-(4-(pyridin-3-yloxy)phenyl)propanamide], the IC50 [1] was > 10 µM and the IC50 [2] was > 10 µM.
With `N#Cc1ccc(NC(=O)CSc2nc3ccc(C#N)cc3[nH]2)cc1` [Compound 93] the IC50 [1] was < 1 µM and the IC50 [2] was 1 to 5 µM.
`N#Cc1ccc2nc(SCC(=O)Nc3ccc(Cl)cc3)[nH]c2c1` [Compound 94] was tested, and the IC50 [1] was 1 to 5 µM and the IC50 [2] was 1 to 5 µM.
With `N#Cc1ccc(NC(=O)CSc2nc3cc(Br)ccc3[nH]2)cc1` [Compound 96] the IC50 [1] was < 1 µM and the IC50 [2] was < 1 µM.
With `N#Cc1ccc(NC(=O)CSc2nc3cc(OC(F)F)ccc3[nH]2)cc1` [Compound 104] the IC50 [1] was 1 to 5 µM and the IC50 [2] was 1 to 5 µM.
In the case of `O=C(CSc1nc2cc(C(F)(F)F)ccc2[nH]1)Nc1ccc(Cl)cc1` [Compound 105], the IC50 [1] was < 1 µM and the IC50 [2] was < 1 µM.
Compound `O=C(CSc1nc2cc(F)ccc2[nH]1)Nc1ccc(Cl)cc1` [Compound 110] has an IC50 [1] of 1 to 5 µM and an IC50 [2] of 1 to 5 µM.
With `O=C(CSc1nc2ccc(-n3cccn3)cc2[nH]1)Nc1ccc(Cl)cc1` [Compound 116] the IC50 [1] was > 10 µM and the IC50 [2] was > 10 µM.
`N#Cc1ccc(NC(=O)CSc2nc3cc(Cl)ccc3[nH]2)cc1` [Compound 125] was tested, and the IC50 [1] was < 1 µM and the IC50 [2] was < 1 µM.
Work on `O=C(CSc1nc2cc(F)c(F)cc2[nH]1)Nc1ccc(Br)cc1` [Compound 126] yielded an IC50 [2] of 1 to 5 µM.
`O=C(CSc1nc2ccc(Cl)cc2[nH]1)Nc1ccc(Cl)cc1` [Compound 137] was tested, and the IC50 [1] was < 1 µM and the IC50 [2] was < 1 µM.
`COc1ccc(NC(=O)CSc2nc3ccc(Cl)cc3[nH]2)cc1` [Compound 140] showed an IC50 [2] of 5 to 10 µM.
`N#Cc1ccc(NC(=O)CSc2nc3cc(Cl)ccc3[nH]2)cc1Cl` [Compound 142] was tested, and the IC50 [1] was < 1 µM and the IC50 [2] was < 1 µM.
`O=C(CSc1nc2ccc(Br)cc2[nH]1)Nc1ccc(Cl)cc1` [Compound 145] was tested, and the IC50 [1] was < 1 µM and the IC50 [2] was < 1 µM.
For `N#Cc1ccc(NC(=O)CSc2nc3cc(Br)ccc3o2)cc1` [Compound 147], the IC50 [1] was < 1 µM and the IC50 [2] was < 1 µM.
With `O=C(CCc1nc2ccc(Cl)cc2[nH]1)Nc1ccc(Oc2cccnc2)cc1` [Compound 152, 3-(5-chloro-1H-benzo[d]imidazol-2-yl)-N-(4-(pyridin-3-yloxy)phenyl)propanamide] the IC50 [1] was < 1 µM and the IC50 [2] was < 1 µM.
